Data: PubChem BioAssay AID1918932 (Molecular Pharmacology Branch, DTP, NCI, 2023)
Values joined by “and” are separate entries in the source; they are usually repeats but may differ in a detail not shown here. Identical values can stand only once.

System: 171881-019-R-J1-PDC complex spheroid viability
Experiment: Anticancer human tumor 171881-019-R-J1-PDC patient-derived invasive breast carcinoma cell line growth inhibition
Details: for viability, T/C: stronger effect = lower value; for IC50: curve of compound
Text: Multicellular complex tumor spheroid response to LSD1 Inhibitor Iadademstat in combination with a variety of drugs and investigational agents in selected tumor cell lines
The current study was undertaken to assess response to LSD1 inhibitors in combination with standard-of-care drugs and investigational agents in solid tumor complex spheroid models as well as in the K-562 leukemia. Complex spheroids include a stromal component modeled by human endothelial cells (HUVEC) and fibroblasts modeled by human mesenchymal stem cells (MSCs). The concentration ranges selected for each drug and investigational agent were based upon clinically achievable concentrations if the clinical Cmax of the agent was known.
Compounds. The drugs and investigational agents used in this study are listed on Table 1. All of the agents used, including staurosporine (NSC755774) and gemcitabine (NSC613327), were obtained from the Developmental Therapeutics Program, NCI. FDA-approved anticancer drugs are available from the NCI at http://dtp.nci.nih.gov/branches/dscb/oncology_drugset_explanation.html. Drugs and investigational agents were >95% pure by proton nuclear magnetic resonance (NMR) and liquid chromatography/mass spectrometry (LC/MS). Stock solutions were prepared at 400x in DMSO, stored at -70 degrees C, and diluted in fresh medium prior to their use. The final concentration of DMSO in cell culture wells never exceeded 0.25% (v/v). The FDA-approved anticancer drug set is available from the Developmental Therapeutics Program at https://dtp.cancer.gov/organization/dscb/obtaining/available_plates.htm. All drugs and investigational agents were tested over a range starting from a high concentration at or near the clinical Cmax and decreasing in half-log increments. If the clinical Cmax for an agent had not been determined, the highest concentration tested was 10 microM.
Cell Lines. The patient-derived cancer cell (PDC) lines: 292921-168-R-J2-PDC, K24384-001-R-PDC, and 521955-158-R2-J5-PDC pancreatic carcinomas, 556581-035-R-J1 ovarian carcinoma, 324938-238-R-J1-PDC, 855422-203-R-J1-PDC and 883617-216-R-J1-PDC urothelial bladder carcinomas, 743489-274-T-PDC renal cell carcinoma, 138582-R-J1 Merkel cell tumor, K60290-347-R-J1 and K57222-313-R-J1-PDC glioblastomas, 653999-131-R-J2-PDC, LG0703-F948-PDC, and 349418-098-R-PDC non-small cell lung carcinomas, 885512-296-R-J2-PDC, 171881-019-R-J1-PDC breast carcinomas and 186277-243-T-J2-PDC and 233499-124-R-J2-PDC colon carcinomas were obtained from the NCI Patient-Derived Models Repository (PDMR, https://pdmr.cancer.gov). The established cell lines NCI/ADR-RES (RRID:CVCL_14520 and OVCAR-5 (RRID:CVCL_1628) ovarian carcinomas, 786-O (RRID:CVCL_1051) and A498 (RRID:CVCL_A498) renal cell carcinoma, NCI-H211 (ATCC, cat. CRL-5824; RRID:CVCL_1529), NCI-H196 (ATCC, cat. CRL-5823, RRID:CVCL_1509), SW 1271 (ATCC, cat. CRL-2177, RRID:CVCL_1716) and NCI-H1876 (ATCC, cat. CRL-5902, RRID:CVCL_1503) small cell lung carcinomas, MDA-MB-231 (RRID:CVCL_0062) and MDA-MB-468 (RRID:CVCL_0419)breast carcinomas (10-12). Pooled donor human umbilical vein endothelial cells (HUVEC, Lonza, cat. CC-2519) and human mesenchymal stem cells (hMSC, Lonza, cat. PT-2501) were purchased from Lonza (Walkersville, MD).
Cell Culture. All cells were maintained in an incubator at 37 degrees C and 5% CO2 with 95% humidity. The PDC lines were cultured according to standard operating procedures established by the NCI PDMR (https://pdmr.cancer.gov). Briefly all PDCs were thawed and cultured in Matrigel-coated flasks prepared with a working solution of 1X Ham's F-12 nutrient mix, without supplementation (Invitrogen, Waltham, MA, cat. 11765054), 100 U/mL penicillin-streptomycin (Invitrogen, cat. 15140122), and 2.5% Matrigel (Corning Inc., Corning, NY, cat. 354248) for the first three passages. […]
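Note: spheroids exposed to agents for 7 days after 3 days growth.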

| Compound | IC50 | viability, T/C (compound 0.000316 µM) | viability, T/C (compound 0.001 µM) | viability, T/C (compound 0.00316 µM) | viability, T/C (compound 0.01 µM) | viability, T/C (compound 0.0316 µM) | viability, T/C (compound 0.1 µM) | viability, T/C (compound 0.316 µM) | viability, T/C (compound 1 µM) | viability, T/C (compound 3.16 µM) | viability, T/C (compound 10 µM) |
| --- | --- | --- | --- | --- | --- | --- | --- | --- | --- | --- | --- |
| CC(C)c1c(-c2ccccc2)nc2c(C#N)c[nH]n2c1=O | > 10000 nM and 4750 nM | – | – | – | – | 95.8% and 97.3% | 92.4% and 99.1% | 87.7% and 97.2% | 89.9% and 88% | 94% and 67.1% | 95.2% and 19.2% |
| CC1(C)CCC(CN2CCN(c3ccc(C(=O)NS(=O)(=O)c4ccc(NCC5CCOCC5)c([N+](=O)[O-])c4)c(Oc4cnc5[nH]ccc5c4)c3)CC2)=C(c2ccc(Cl)cc2)C1 | 2200 nM and 1310 nM | – | – | – | – | 93.7% and 93.8% | 87% and 96.2% | 93% and 86.7% | 77% and 58.6% | 37.4% and 21.2% | 3.33% and 4.05% |
| CC1COCCN1c1cc(-c2ccnn2C)c2ccnc(-c3ccn[nH]3)c2n1 (stereo not given) | 4.91 nM and < 3.16 nM | – | – | 55.2% and 49.8% | 41.7% and 43.5% | 15.5% and 21.5% | 7.25% and 9.16% | 6.43% and 6.74% | 5.29% and 6.58% | – | – |

Second part, led by results:

| IC50 | Compound | viability, T/C (compound 0.000316 µM) | viability, T/C (compound 0.001 µM) | viability, T/C (compound 0.00316 µM) | viability, T/C (compound 0.01 µM) | viability, T/C (compound 0.0316 µM) | viability, T/C (compound 0.1 µM) | viability, T/C (compound 0.316 µM) | viability, T/C (compound 1 µM) | viability, T/C (compound 3.16 µM) | viability, T/C (compound 10 µM) |
| --- | --- | --- | --- | --- | --- | --- | --- | --- | --- | --- | --- |
| < 0.316 nM | CC(C)CC(NC(=O)C(Cc1ccccc1)NC(=O)c1cnccn1)B(O)O (stereo not given) | 9.71% and 22.8% | 1.12% and 20.1% | 0.41% and 17.8% | 0.25% and 10.1% | 0.24% and 12% | 0.17% and 6.28% | – | – | – | – |
| 3.02 nM and 1.19 nM | CC(C)CC(NC(=O)CNC(=O)c1cc(Cl)ccc1Cl)B1OC(=O)CC(CC(=O)O)(C(=O)O)O1 (stereo not given) | 91.2% and 75.3% | 105% and 52.1% | 48% and 33.7% | 12.6% and 17.4% | 3.28% and 13.3% | 0.97% and 15.7% | – | – | – | – |
